# According to paper PMC8992272, “Stabilities of Three Key Biological Trisulfides with Implications for Their Roles in the Release of Hydrogen Sulfide and Bioaccumulation of Sulfane Sulfur” (ACS Omega, 2022):
# Like-named read-outs stand apart in the source and are kept apart here.
# Experiments:
# [1] = cited from earlier work
# [2] = Stability in D2O in the presence of butylamine or triethylamine, tracked by 1H NMR; format: physicochemical; details: for degraded: after 1 day; for tetrasulfide present: butylamine and triethylamine
# Procedure: N-Acetylcysteine trisulfide (26.5 mg, 66 μmol) was dissolved in 600 μL of D2O. Butylamine (5.0 mg, 68 μmol) was added, and the ^1H NMR spectra were taken periodically to track degradation.
# N-Acetylcysteine trisulfide (26.5 mg, 66 μmol) was dissolved in 600 μL of D2O. Triethylamine (8.0 mg, 79 μmol) was added, and the ^1H NMR spectra were taken periodically to track degradation.
# Cysteine trisulfide (5.5 mg, 20 μmol) was added to 600 μL of D2O. The solution was filtered to remove undissolved particles. […] The ^1H NMR spectra were taken periodically to track degradation.
# Cysteine trisulfide (4.3 mg, 16 μmol) was added to 600 μL of D2O. The solution was filtered to remove undissolved particles. […] The ^1H NMR spectra were taken periodically to track degradation.
# N-Acetylcysteine tetrasulfide (17.2 mg, 44 μmol) was dissolved in 600 μL of D2O. Butylamine (9.9 mg, 135 μmol) was added, and the ^1H NMR spectra were taken periodically to track degradation.
# N-Acetylcysteine tetrasulfide (17.2 mg, 44 μmol) was dissolved in 600 μL of D2O. Triethylamine (13.5 mg, 135 μmol) was added, and the ^1H NMR spectra were taken periodically to track degradation.
# [3] = Stability in water/D2O buffered at different pH values, tracked by 1H NMR; format: physicochemical; details: for half-life: buffered water/D2O, read-out: estimated half-life (converted); for degradation: pH 5.8, 9 days
# Text: The ^1H NMR spectra of NAC and the disulfide, trisulfide, and tetrasulfide of NAC had peaks at unique values for chemical shifts and allowed for their easy characterization (Figure 3). Pure chemicals of each sulfide were synthesized and characterized by ^1H and ^13C NMR spectroscopy as well as by high-resolution mass spectroscopy. The unique chemical shifts of the peaks for the Ha and Hb/Hc protons on the sulfides allowed the integration of each sulfide to be determined.
# The stability of NAC trisulfide in water buffered at pH values of 5.8, 7.4, and 9.0 was measured.
# The stability of cysteine trisulfide was investigated in buffered water at pH values of 5.8, 7.0, and 9.0. […] At pH values of 5.8, 7.0, and 9.0, the cysteine trisulfide was soluble and its ^1H NMR spectra were obtained.
# The stability of glutathione trisulfide was investigated at pH values of 5.8, 7.4, and 9.0 (Figure S14a). The degradation of glutathione trisulfide was more rapid at pH values of 5.8 and 7.4 than that of the trisulfides of NAC and cysteine. At an acidic pH of 5.8, 71% of glutathione trisulfide degraded after 10 days. At pH values of 7.4 and 9.0, glutathione trisulfide degraded 79 and 81%, respectively, at day 9. […] The degradation of glutathione trisulfide reached an equilibrium of approximately 20% with the disulfide due to the reaction catalyzed by amine with elemental sulfur. Rate constants and half-lives were obtained for the degradation of glutathione trisulfide at each pH value using early data points unaffected by the equilibrium. At pH values of 5.8, 7.4, and 9.0, the estimated half-lives were 6.3 days (151 h), 0.90 days (21.6 h), and 0.79 days (19.0 h), respectively (Figure S14b).
# The stability of NAC tetrasulfide was investigated in D2O buffered at pH values of 5.8, 7.4, and 9.0 (Figure S16a). At a pH of 5.8, NAC tetrasulfide degraded by 13% after 9 days. At pH values of 7.4 and 9.0, the tetrasulfide degraded by 55 and 52%, respectively, after 9 days. At each pH, the degradation product was NAC trisulfide, elemental sulfur, and a small amount of NAC disulfide (<3%). […] Estimated rate constants and half-lives for the degradation of NAC tetrasulfide at each pH were obtained. At pH values of 5.8, 7.4, and 9.0, the estimated half-lives were 53.3, 7.5, and 8.2 days, respectively (Figure S16b).
# [4] = Stability in the presence of acetonitrile, benzamide, zinc sulfate or iron sulfate, or in methanol-d4 (1H NMR); format: physicochemical; details: 3:1 mole ratio acetonitrile or benzamide, D2O, after 12 days
# Procedure: N-Acetylcysteine trisulfide (26.5 mg, 66 μmol) was dissolved in 600 μL of D2O. Acetonitrile (3.0 mg, 73 μmol) was added, and the ^1H NMR spectra were taken periodically to track degradation.
# N-Acetylcysteine trisulfide (31.4 mg, 78 μmol) was dissolved in 600 μL of D2O. Benzamide (9.4 mg, 78 μmol) was added, and the ^1H NMR spectra were taken periodically to track degradation.
# N-Acetylcysteine trisulfide (15.0 mg, 38 μmol) was dissolved in 600 μL of D2O. ZnSO4 (11.8 mg, 73 μmol) was added, and the ^1H NMR spectra were taken periodically to track degradation.
# N-Acetylcysteine trisulfide (15.0 mg, 38 μmol) was dissolved in 600 μL of D2O. FeSO4·7H2O (11.6 mg, 41 μmol) was added, and the ^1H NMR spectra were taken periodically to track degradation.
# N-Acetylcysteine trisulfide (32.1 mg, 80 μmol) was dissolved in 600 μL of CD3OD. The ^1H NMR spectra were taken periodically to track degradation.
# Cysteine trisulfide (5.1 mg, 19 μmol) was added to 600 μL of D2O. Solution was filtered to remove undissolved particles. […] The ^1H NMR spectra were taken periodically to track degradation.
# Cysteine trisulfide (6.8 mg, 25 μmol) was added to 600 μL of D2O. Solution was filtered to remove undissolved particles. […] The ^1H NMR spectra were taken periodically to track degradation.
# Solubility observations = format: physicochemical
# [5] = no reference given, cited from earlier work
# [6] = Equilibrium between di-, tri- and tetrasulfides in the presence of elemental sulfur (1H NMR); format: physicochemical; details: D2O with elemental sulfur and butylamine, after 4 days
# Procedure: To test this hypothesis, a reaction was completed in D2O with elemental sulfur, NAC disulfide, and butylamine.
# To understand why the degradation leveled off, NAC trisulfide was dissolved in water, elemental sulfur was added, and the contents were heated to 40 °C.
# N-Acetylcysteine disulfide (9.3 mg, 23 μmol) was dissolved in 600 μL of D2O. Elemental sulfur (6.8 mg, 0.21 mmol) and butylamine (18.5 mg, 0.25 mmol) were added, and the ^1H NMR spectra were periodically obtained to track the equilibrium.
# [7] = Stability in nonbuffered D2O at room and elevated temperature (1H NMR); format: physicochemical; details: nonbuffered D2O
# Procedure: N-Acetylcysteine trisulfide (24.3 mg, 61 μmol) was dissolved in 500 μL of D2O and placed in a 40 °C oil bath. The ^1H NMR spectra were taken periodically to track degradation.
# N-Acetylcysteine trisulfide (24.3 mg, 61 μmol) was dissolved in 500 μL of D2O and placed in a 60 °C oil bath. The ^1H NMR spectra were taken periodically to track degradation.
# N-Acetylcysteine tetrasulfide (8.0 mg, 21 μmol) was dissolved in 600 μL of D2O. The ^1H NMR spectra were taken periodically to track degradation.
# N-Acetylcysteine tetrasulfide (10.0 mg, 26 μmol) was dissolved in 600 μL of D2O and placed in a 40 °C oil bath. The ^1H NMR spectra were taken periodically to track degradation.
smiles,measurement,setting,value
"C=CCSSSCC=C [DATS, diallyl trisulfide]",degradation,[1]; in the presence of glutathione (GSH),degraded rapidly
same,stability,"[1]; micellar solution (propylene glycol, ethanol, Tween 80, water), pH 2.6 to 7.0, 15 min, HPLC",stable
same,stability,"[1]; neat, 4 °C, after 3 months, HPLC",stable
same,degraded,"[1]; neat, 35 °C, after 3 months, HPLC",30%
same,degraded,"[1]; neat, room temperature, after 3 months, HPLC",11%
same,stability,"[1]; same micellar solution, in the presence of antioxidants",not stable
"N[C@@H](CSSSC[C@H](N)C(=O)O)C(=O)O [cysteine trisulfide, Cysteine Trisulfide]",half-life,"[2]; D2O with butylamine, in the presence of butylamine, D2O, early data points, read-out: estimated half-life of degradation (converted)",2.3 h
same,half-life,"[2]; D2O with triethylamine, in the presence of triethylamine, D2O, early data points, read-out: estimated half-life of degradation (converted)",2.9 h
same,trisulfide remaining (degradation leveled off),"[2]; after 10 days in the presence of butylamine and triethylamine, D2O",approximately 20%
same,degraded,"[2]; in the presence of butylamine, D2O",63%
same,degraded,"[2]; in the presence of triethylamine, D2O",78%
same,stability,[3]; basic conditions (abstract),unstable
same,half-life,"[3]; pH 7, pH 7.0",406 h
same,half-life,"[3]; pH 9, pH 9.0",274 h
same,degradation,[3],< 3%
same,degraded,"[3]; pH 7.0, after 13 days",40%
same,degraded,"[3]; pH 9.0, after 13 days",56%
same,degradation,[4],no observable degradation
same,solubility,"Solubility observations; buffered water pH 5.8, 7.0 and 9.0",soluble
same,solubility,Solubility observations; buffered water pH 7.4,poorly soluble
N[C@@H](CS)C(=O)O [cysteine],pKa,[5]; ammonium group,10.8
"CC(=O)N[C@@H](CSSC[C@H](NC(C)=O)C(=O)O)C(=O)O [NAC disulfide, N-Acetylcysteine disulfide, reference compound]",converted to trisulfide,[6],15%
N[C@@H](CCC(=O)N[C@@H](CS)C(=O)NCC(=O)O)C(=O)O [glutathione],pKa,[5]; ammonium group,9.6
"CC(=O)NC(CSSSSCC(NC(C)=O)C(=O)O)C(=O)O (centres unmarked) [NAC tetrasulfide, N-Acetylcysteine Tetrasulfide]",half-life at 73 mM,"[2]; D2O with butylamine or triethylamine, in the presence of butylamine and triethylamine (both amines), read-out: upper limit of the half-life",≤ 1.6 min
same,half-life,"[2]; D2O with butylamine, in the presence of butylamine (abstract), read-out: half-life",≤ 0.025 h
same,tetrasulfide present,[2]; after 5 min,less than 10%
same,tetrasulfide present,[2]; after a day,4%
same,half-life,"[3]; pH 5.8, pH 5.8",1280 h
same,half-life,"[3]; pH 7.4, pH 7.4",180 h
same,half-life,"[3]; pH 9, pH 9.0",197 h
same,degradation,[3],13%
same,degraded,"[3]; pH 7.4, day 9",55%
same,degraded,"[3]; pH 9.0, day 9",52%
same,stability,"[1]; in the presence of thiols, released H2S",unstable
same,estimated rate constant,[7]; 40 °C,8.7 × 10^–2 days^–1
same,degraded,"[7]; 40 °C, after 20 days",83%
same,degradation,"[7]; 40 °C, after 63 days",83%
same,half-life at 43 mM,"[7]; 40 °C, read-out: estimated half-life (converted)",192 h
same,estimated rate constant,[7]; room temperature,3.9 × 10^–2 days^–1
same,degraded,"[7]; room temperature, after 35 days",69%
same,half-life at 35 mM,"[7]; room temperature, read-out: estimated half-life (converted)",427 h
"CSSSC [DMTS, dimethyl trisulfide]",degradation,"[1]; neat, 4 and 22 °C, over 1 year",no degradation
same,degraded,"[1]; neat, 34 °C, over 1 year",70%
"S [H2S, hydrogen sulfide]",pKa,[5],7.0
